In patent publication US20170305857A1, “N-ACYLPIPERIDINE ETHER TROPOMYOSIN-RELATED KINASE INHIBITORS” (Pfizer Limited, priority 2014, published 2017):

Molecular target: T1, recombinant His-tagged cytoplasmic domains of TRKA receptor (NTRK1, PV3144, aa 441-796) (Homo sapiens, UniProt P04629)
T1 construct: aa 441-796; His; purchased Invitrogen PV3144
Test: Isolated TRK enzyme assay (HTRF KinEASE-TK, PV3144 TrkA enzyme assay)
Assay type: biochemical
Conditions: 4 nM enzyme, 40 uM ATP, 35 min, arithmetic mean where more than one reading
Protocol: Isolated TRK Enzyme assays use the HTRF KinEASE-TK kit (Cisbio Cat #62TK0PEJ) with recombinant His-tagged cytoplasmic domains of TRKA receptor sourced from Invitrogen (see table below). This activity-assay measures the phosphorylation of tyrosine residues within a substrate from the HTRF kit which has been validated by Cisbio for a variety of tyrosine kinases including the TRK receptors.
0.5 mM stock solutions of test compounds are prepared and serially diluted in 100% DMSO. […] Greiner low volume black plates containing 0.2 ul of serially diluted compound, standard and HPE/ZPE are created using the Bravo nanolitre dispenser.
1× enzyme buffer is prepared from 5× Enzymatic Buffer from the Cisbio KinEASE TK kit using MilliQ water. The buffer is then supplemented with 10 mM MgCl and 2 mM DTT (both from Sigma).
Following this preactivation step, 5 ul/well of enzyme+ATP mix is added using a Multidrop Micro to the assay plate, spotted with 0.2 ul 100% DMSO compound. This is left for 20 mins at room temperature before adding 5 ul of 2 uM TK-substrate-Biotin (from the Cisbio kit) diluted in 1× enzyme buffer (1 uM FAC) using the Multidrop Micro. The reaction is incubated at room temperature for the optimized assay reaction time (see table).
After the Detection Reagent addition, plates are covered and incubated at room temperature for 60 minutes. […] Test compound data are expressed as percentage inhibition defined by HPE and ZPE values for each plate. Percentage inhibition in the presence of test compound is plotted against compound concentration on a log scale to determine an IC50 from the resultant sigmoid curve.
Where more than one reading was taken, the arithmetic mean is presented.

T1 sequence (P04629 441-796): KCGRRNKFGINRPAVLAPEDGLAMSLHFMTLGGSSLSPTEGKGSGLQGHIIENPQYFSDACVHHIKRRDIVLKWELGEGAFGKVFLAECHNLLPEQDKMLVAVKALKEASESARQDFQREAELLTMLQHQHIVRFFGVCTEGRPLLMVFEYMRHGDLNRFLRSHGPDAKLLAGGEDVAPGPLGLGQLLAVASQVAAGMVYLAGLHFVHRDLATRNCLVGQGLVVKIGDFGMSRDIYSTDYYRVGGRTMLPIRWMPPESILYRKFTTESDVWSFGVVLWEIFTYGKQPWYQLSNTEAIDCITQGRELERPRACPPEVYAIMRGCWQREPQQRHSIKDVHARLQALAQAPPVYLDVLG

| SMILES | IC50 [nM] |
| --- | --- |
| NC(=O)c1cc(-c2cn[nH]c2)ccc1O[C@@H]1CCN(C(=O)Cc2ccc(OC(F)(F)F)cc2)C[C@@H]1F [Example 73, 2-{[(3S,4R)-3-fluoro-1-{[4-(trifluoromethoxy)phenyl]acetyl}piperidin-4-yl]oxy}-5-(1H-pyrazol-4-yl)benzamide] | 0.9 |
| NC(=O)c1cc(-c2cscn2)ccc1OC1CCN(C(=O)Cc2ccc(OC(F)(F)F)cc2)CC1 [Example 101, 5-(1,3-thiazol-4-yl)-2-[(1-{[4-(trifluoromethoxy)phenyl]acetyl}piperidin-4-yl)oxy]benzamide] | 9.4 |
| NC(=O)c1cc(-c2c[nH]cn2)cnc1O[C@@H]1CCN(C(=O)Cc2ccc(OC(F)(F)F)cc2)C[C@@H]1F [Example 81, 2-{[(3S,4R)-3-fluoro-1-{[4-(trifluoromethoxy)phenyl]acetyl}piperidin-4-yl]oxy}-5-(1H-imidazol-4-yl)pyridine-3-carboxamide] | 2.5 |
| NC(=O)c1cc(-c2cnn(CC3(O)COC3)c2)ccc1OC1CCN(C(=O)Cc2ccc(OC(F)(F)F)cc2)CC1 [Example 129, 5-{1-[(3-hydroxyoxetan-3-yl)methyl]-1H-pyrazol-4-yl}-2-[(1-{[4-(trifluoromethoxy)phenyl]acetyl}piperidin-4-yl)oxy]benzamide] | 6.9 |
| NC(=O)c1cc(-c2cnn(C3CS(=O)(=O)C3)c2)cnc1O[C@H]1CCN(C(=O)Cc2ccc(OC(F)(F)F)cc2)C[C@H]1F [Example 22, 5-[1-(1,1-dioxidothietan-3-yl)-1H-pyrazol-4-yl]-2-{[(3R,4S)-3-fluoro-1-{[4-(trifluoromethoxy)phenyl]acetyl}piperidin-4-yl]oxy}pyridine-3-carboxamide] | 1.2 |
| CC(C)(O)Cn1cc(-c2cnc(O[C@H]3CCN(C(=O)Cc4ccc(OC5CC5)cn4)C[C@H]3F)c(C(N)=O)c2)cn1 [Example 33, 2-{[(3R,4S)-1-{[5-(cyclopropyloxy)pyridin-2-yl]acetyl}-3-fluoropiperidin-4-yl]oxy}-5-[1-(2-hydroxy-2-methylpropyl)-1H-pyrazol-4-yl]pyridine-3-carboxamide] | 4.9 |
| CS(=O)(=O)Cn1cc(-c2cnc(O[C@H]3CCN(C(=O)Cc4ccc(OC(F)(F)F)c(F)c4)C[C@@H]3F)c(C(N)=O)c2)cn1 [Example 26, 2-{[(3S,4S)-3-fluoro-1-{[3-fluoro-4-(trifluoromethoxy)phenyl]acetyl}piperidin-4-yl]oxy}-5-{1-[(methylsulfonyl)methyl]-1H-pyrazol-4-yl}pyridine-3-carboxamide] | 8.9 |
| NC(=O)c1cc(-c2cnn(C3CS(=O)(=O)C3)c2)ccc1OC1CCN(C(=O)Cc2ccc(OC(F)(F)F)cc2)CC1 [Example 13, 5-[1-(1,1-dioxidothietan-3-yl)-1H-pyrazol-4-yl]-2-[(1-{[4-(trifluoromethoxy)phenyl]acetyl}piperidin-4-yl)oxy]benzamide] | 2.2 |
| NC(=O)c1cc(-c2nccs2)ccc1OC1CCN(C(=O)Cc2ccc(OC(F)(F)F)cc2)CC1 [Example 100, 5-(1,3-thiazol-2-yl)-2-[(1-{[4-(trifluoromethoxy)phenyl]acetyl}piperidin-4-yl)oxy]benzamide] | 8.5 |
| Cn1cnc(-c2ccc(OC3CCN(C(=O)Cc4ccc(OC(C)(F)F)cn4)CC3)c(C(N)=O)c2)c1 [Example 168, 2-[(1-{[5-(1,1-difluoroethoxy)pyridin-2-yl]acetyl}piperidin-4-yl)oxy]-5-(1-methyl-1H-imidazol-4-yl)benzamide] | 17.3 |
| Cc1nc(-c2cnc(O[C@@H]3CCN(C(=O)Cc4ccc(OC(F)(F)F)cc4)C[C@@H]3F)c(C(N)=O)c2)c[nH]1 [Example 120] | 1.3 |
| Cn1cnc(-c2ccc(O[C@@H]3C[C@H]4CC[C@@H](C3)N4C(=O)Cc3ccc(OC(F)(F)F)cc3)c(C(N)=O)c2)c1 [Example 48, 5-(1-methyl-1H-imidazol-4-yl)-2-(((1R,3s,5S)-8-(2-(4-(trifluoromethoxy)phenyl)acetyl)-8-azabicyclo[3.2.1]octan-3-yl)oxy)benzamide] | 3.6 |
| Cn1cnc(-c2cnc(O[C@@H]3CCN(C(=O)Cc4ccc(OC5CC5)cn4)C[C@@H]3F)c(C(N)=O)c2)c1 [Example 29, 2-{[(3S,4R)-1-{[5-(cyclopropyloxy)pyridin-2-yl]acetyl}-3-fluoropiperidin-4-yl]oxy}-5-(1-methyl-1H-imidazol-4-yl)pyridine-3-carboxamide] | 4.3 |
| Cn1cc(-c2cnc(O[C@@H]3CCN(C(=O)Cc4ccc(OC(F)(F)F)cc4)C[C@@H]3F)c(C(N)=O)c2)nn1 [Example 155, 2-[((3S,4R)-3-fluoro-1-{[4-(trifluoromethoxy)phenyl]acetyl}piperidin-4-yl)oxy]-5-(1-methyl-1H-1,2,3-triazol-4-yl)pyridine-3-carboxamide] | 2.45 |
| NC(=O)c1cc(-c2cnn(C3CS(=O)(=O)C3)c2)ccc1O[C@@H]1CCN(C(=O)Cc2ccc(OC(F)(F)F)cc2)C[C@@H]1F [Example 1, 5-[1-(1,1-dioxidothietan-3-yl)-1H-pyrazol-4-yl]-2-{[(3S,4R)-3-fluoro-1-{[4-(trifluoromethoxy)phenyl]acetyl}piperidin-4-yl]oxy}benzamide] | 0.4 |
| NC(=O)c1cc(-c2cn[nH]c2)ccc1O[C@H]1CCN(C(=O)Cc2ccc(OC(F)(F)F)cc2)C[C@H]1F [Example 5, 2-{[(3R,4S)-3-fluoro-1-{[4-(trifluoromethoxy)phenyl]acetyl}piperidin-4-yl]oxy}-5-(1H-pyrazol-4-yl)benzamide] | 0.9 |
| Cn1cnc(-c2ccc(O[C@@H]3[C@@H]4CC[C@H]3CN(C(=O)Cc3ccc(OC(F)(F)F)cc3)C4)c(C(N)=O)c2)c1 [Example 47, 5-(1-methyl-1H-imidazol-4-yl)-2-(((1R,5S,8s)-3-(2-(4-(trifluoromethoxy)phenyl)acetyl)-3-azabicyclo[3.2.1]octan-8-yl)oxy)benzamide] | 5.2 |
| NC(=O)c1cc(-c2cn(C[C@@H](O)CO)cn2)ccc1OC1CCN(C(=O)Cc2ccc(OC(F)(F)F)cc2)CC1 [Example 126, 5-{1-[(2R)-2,3-dihydroxypropyl]-1H-imidazol-4-yl}-2-[(1-{[4-(trifluoromethoxy)phenyl]acetyl}piperidin-4-yl)oxy]benzamide] | 2.9 |
| NC(=O)c1cc(-c2c[nH]cn2)cnc1O[C@H]1CCN(C(=O)Cc2ccc(OC(F)(F)F)cc2)C[C@H]1F [Example 141, 2-{[(3R,4S)-3-fluoro-1-{[4-(trifluoromethoxy)phenyl]acetyl}piperidin-4-yl]oxy}-5-(1H-imidazol-4-yl)pyridine-3-carboxamide] | 1.4 |
| CS(=O)(=O)Cn1cc(-c2cc(C(N)=O)c(O[C@@H]3CCN(C(=O)Cc4ccc(OC(F)(F)F)c(F)c4)C[C@@H]3F)cn2)cn1 [Example 37, 5-{[(3S,4R)-3-fluoro-1-{[3-fluoro-4-(trifluoromethoxy)phenyl]acetyl}piperidin-4-yl]oxy}-2-{1-[(methylsulfonyl)methyl]-1H-pyrazol-4-yl}pyridine-4-carboxamide] | 7.4 |
| NC(=O)c1cc(-c2ccc(CO)cc2)cnc1OC1CCN(C(=O)Cc2ccc(OC(F)(F)F)cc2)CC1 [Example 151, 5-[4-(hydroxymethyl)phenyl]-2-[(1-{[4-(trifluoromethoxy)phenyl]acetyl}piperidin-4-yl)oxy]pyridine-3-carboxamide] | 12 |
| NC(=O)c1cc(-c2cn[nH]c2)ncc1O[C@@H]1CCN(C(=O)Cc2ccc(OC3CC3)cn2)C[C@@H]1F [Example 87, 5-{[(3S,4R)-1-{[5-(cyclopropyloxy)pyridin-2-yl]acetyl}-3-fluoropiperidin-4-yl]oxy}-2-(1H-pyrazol-4-yl)pyridine-4-carboxamide] | 6.8 |
| N#Cc1cc(-c2ccc(OC3CCN(C(=O)Cc4ccc(OC(F)(F)F)cc4)CC3)c(C(N)=O)c2)cs1 [Example 144, 5-(5-cyanothiophen-3-yl)-2-[(1-{[4-(trifluoromethoxy)phenyl]acetyl}piperidin-4-yl)oxy]benzamide] | 16.7 |
| CS(=O)(=O)Cn1cc(-c2cnc(O[C@@H]3CCN(C(=O)Cc4ccc(OC(F)(F)F)cc4)C[C@@H]3F)c(C(N)=O)c2)cn1 [Example 55, 2-{[(3S,4R)-3-fluoro-1-{[4-(trifluoromethoxy)phenyl]acetyl}piperidin-4-yl]oxy}-5-{1-[(methylsulfonyl)methyl]-1H-pyrazol-4-yl}pyridine-3-carboxamide] | 1.8 |
| NC(=O)c1cc(-c2cnn(C3CS(=O)(=O)C3)c2)ccc1O[C@H]1CCN(C(=O)Cc2ccc(OC(F)(F)F)cc2)C[C@H]1F [Example 76, 5-[1-(1,1-dioxidothietan-3-yl)-1H-pyrazol-4-yl]-2-{[(3R,4S)-3-fluoro-1-{[4-(trifluoromethoxy)phenyl]acetyl}pipertdin-4-yl]oxy}benzamide] | 1.2 |
| NC(=O)c1cc(-c2cnn(CCO)c2)cnc1OC1CCN(C(=O)Cc2ccc(OC3CC3)cc2)CC1 [Example 176, 2-[(1-{[4-(cyclopropyloxy)phenyl]acetyl}piperidin-4-yl)oxy]-5-[1-(2-hydroxyethyl)-1H-pyrazol-4-yl]pyridine-3-carboxamide] | 12.2 |
